{"source": "patent US20230391881A1", "about": "“COMPOSITIONS AND METHODS FOR OVERCOMING DR5-INDUCED IMMUNE EVASION BY SOLID TUMORS” (University of Virginia Patent Foundation, priority 2020, published 2023)", "format_in_all_cases": "in vivo, mouse", "key": {"[1]": {"system": "4T1 tumors", "assay": "Tumor regression in 4T1 syngeneic TNBC tumor models", "details": "antibodies i.p., similar dose (FIGS. 6I and 6J)", "description": "FIGS. 4A-4K. DR5 agonist activated ROCK1 functions to help PD-L1 surface mobilization. (FIGS. 4A and 4B) KMTR2 and lexatumumab treated MDA-MB-436 and OVCAR3 (respectively) lysates for indicated early time points were analyzed for caspase-8, caspase-3, ROCK1, pMLC, PARP, PD-L1 and CMTM6 etc. as indicated. Vertical arrows indicate sequential kinetics of caspase-8, ROCK1, and caspase-3 activation, arrows with “n.s.” below them indicate nonspecific band by ROCK1 antibody. (FIG. 4C) OVCAR3 cells were treated with pMLC activating ionophore A23187 (positive control) and lexatumumab ±ROCK1 inhibitors or ±rDR5 or ±rFOLR1. Lysates were later analyzed for ROCK1, pMLC, caspase-3 and PARP with GAPDH as loading control. (FIG. 4D) MDA-MB-436 and OVCAR3 cells were treated with indicated ROCK1 inhibitors 2 hours prior to DR5 agonist KMTR2 treatment. After 4 hours flow cytometry was used to analyze surface PD-L1. […] Relative luciferase signal was quantified and plotted after subtraction of background signal from untreated cells. […] Tumor volumes were quantified at indicated days by caliper measurements. […] Statistical significance in FIG. 4J was determined by unpaired student t-test and in FIG. 4K using two-tailed […] Wilcoxon Mann-Whitney test. […]\nFIGS. 6A-6M. […] CD8/CD45 and CD4/CD45 expressing cells were measured by flow cytometry. […] Harvested tumors homogenized followed by quantitation. […]"}, "[2]": {"system": "chi-G4S-DR5 stable MC38 tumors", "assay": "Immunoblotting of Chi-G4S-DR5 stable MC38 tumor lysates (granzyme-b)", "details": "size matched tumors, 6 total doses (FIG. 18A)"}, "[3]": {"system": "chi-G4S-DR5 stable 4T1 tumors", "assay": "Immunoblotting of Chi-G4S-DR5 stable 4T1 tumor lysates (granzyme-b, Foxp3)", "details": "size matched tumors, 6 total doses (FIG. 6D)"}}}
{"substance": "avelumab: clinical anti-PD-L1 antibody (human/mouse cross-reactive); VL and VH SEQ ID NOs: 9 and 10", "values": [{"measurement": "tumor regression", "setting": "[1]", "result": "only stabilized the tumors"}, {"measurement": "granzyme-b activity in tumors compared to DR5 agonist alone", "setting": "[2]", "result": "significantly higher granzyme-b activity"}, {"measurement": "granzyme-b activity in tumors compared to DR5 agonist alone", "setting": "[3]", "result": "significantly higher granzyme-b activity"}]}
